Entries after “also recorded” stand apart in the source; their conditions may differ. Like-named read-outs stand apart in the source and are kept apart here. Marks after values point to notes of the source that are not given here.
Key:
[1] = tested on: Type 2 GD patient-derived cells (L444P/L444P genotype); experiment: GPN-induced lysosomal calcium release assay in Type 2 GD patient-derived cells; format: cell-based, human; conditions: for Emax: Homo sapiens, read-out: Lysosomal Ca+2 Assay Emax, GD patient-derived cells, percent activation of basal GPN-induced calcium response measured in the absence of compound
[2] = tested on: Estrogen Receptor; experiment: Estrogen receptor assay; format: cell-based

estrogen receptor functional activity (in words) ([2]; 10 μM) | Compound | activity in lysosomal calcium release assay (in words) ([1]; GD patient-derived cells) | further results
 | CCCC(C(=O)c1ccc(OCCN(C)C)cc1)c1ccccc1 (centres unmarked) [Compound 18] | little effect on lysosomal calcium release | 
partial agonist activity | CCCCCCC(C(=O)c1ccc(OCCN(C)C)cc1)c1ccccc1 (centres unmarked) [Compound 24] | little effect on lysosomal calcium release | 
 | CC(C)CC(C(=O)c1ccc(OCCN(C)C)cc1)c1ccccc1 (centres unmarked) [Compound 22] |  | potency relative to tamoxifen in calcium release assay ([1]; GD patient-derived cells, fold more potent than tamoxifen): 10 fold
 | CCC(Cc1ccc(OCCN(C)C)cc1)c1ccccc1 (centres unmarked) [Compound 5] | somewhat more potent than and equally efficacious as tamoxifen | 
 | CCCC(CCC)(C(=O)c1ccc(OCCN(C)C)cc1)c1ccccc1 [Compound 20] |  | Emax [1]: 54 to 60%
 | CC(C)C(C(=O)c1ccc(OCCN(C)C)cc1)c1ccccc1 (centres unmarked) [Compound 19] |  | Emax [1]: 54 to 60%
antagonist rather than an agonist | CCCCC(C(=O)c1ccc(OCCN(C)C)cc1)c1ccccc1CC (centres unmarked) [Compound 26] |  | 
 | CCCCC(C(=O)c1ccc(OCCN(C)C)cc1)c1ccccc1C(C)C (centres unmarked) [Compound 28] |  | EC50 ([1]; read-out: Lysosomal Ca+2 Assay EC50, GD patient-derived cells, GPN-induced calcium release): 1.48 µM
 | CCC(C(=O)c1ccc(OCCN(C)C)cc1)c1ccccc1 (centres unmarked) [Compound 17] | little effect on lysosomal calcium release | 
 | CCCCC(C(=O)c1ccc(OCCN(C)C)cc1)c1ccccc1 (centres unmarked) [Compound 21] | little effect on lysosomal calcium release; also recorded: no activity | 
partial agonist activity | CC(C)CCC(C(=O)c1ccc(OCCN(C)C)cc1)c1ccccc1 (centres unmarked) [Compound 23] |  | efficacy relative to tamoxifen in calcium release assay ([1]; GD patient-derived cells, percent more efficacious than tamoxifen): roughly 30%
 | CC/C(=C(\c1ccccc1)c1ccc(OCCN(C)C)cc1)c1ccccc1 [Compound 1, tamoxifen, reference compound] | partially restores lysosomal calcium in GD patient-derived cells | Estrogen Receptor % Activity @ 10 μM (inhibition) [2]: 100%^††; estrogen receptor functional activity (in words) [2]: antagonist activity

Compound | estrogen receptor functional activity (in words) ([2]; 10 μM) | activity in lysosomal calcium release assay (in words) ([1]; GD patient-derived cells) | further results
CC(C)CC(C(=O)c1ccc(OCCN(C)C)cc1)c1ccccc1C1CC1 (centres unmarked) [Compound 31] | devoid of estrogenic activity; also recorded: lack of any estrogenic activity |  | 
